# Test results: US20220411448A1, “CHROMENE-4-ONE DERIVATIVES AS BRAIN-DERIVED NEUROTROPHIC FACTOR (BDNF) MIMETICS” (FLORATEK PHARMA AG, priority 2019, published 2022)
# What was measured:
# [1] = system: primary cultures of cerebral cortical astrocytes; experiment: Glucose uptake ([3H]2-deoxyglucose) in astrocyte cultures; format: cell-based, mouse; conditions: 10 μM, 30 minutes after application
# Experimental: Primary cultures of cerebral cortical astrocytes were prepared from Swiss albino newborn mice (1-2 days old) as described [Pellerin L, Magistretti P J. Glutamate uptake into astrocytes stimulates aerobic glycolysis: a mechanism coupling neuronal activity to glucose utilization. Proc Natl Acad Sci USA. 1994 Oct. 25; 91(22):10625-9]. This procedure yields cultures that are >95% immunoreactive for glial fibrillary acidic protein.
# Astrocytes are emerging as having significant roles in several homeostatic processes in the brain [Zuchero J B, Barres B A. Glia in mammalian development and disease. Development 2015 142: 3805-3809]. To evaluate the potential effects of Compound A (10 μM) on astrocyte metabolism, the uptake of glucose and lactate release were measured 30 minutes after application of compounds to the culture (FIGS. 2 and 3).
# Glucose utilization by cells was measured using radioactive 2-deoxyglucose, a well-established marker of glucose utilization not metabolized within cells. […]
# In order to quantify glucose utilization by cells in the presence of Compound A/SND118, radioactive 2-deoxyglucose, a well-established marker of glucose utilization not metabolized within cells, was used. The radioactivity count is thus proportional to the transport and phosphorylation of glucose that enters into the cells. […]
# Astrocytes = experiment: Cellular ATP/ADP ratio (luciferase, CellTiter-Glo); format: cell-based, mouse
# Experimental: ATP content was measured enzymatically as previously described [Lambert H P et al, Control of Mitochondrial pH by Uncoupling Protein 4 in Astrocytes Promotes Neuronal Survival, 2014 The Journal of Biological Chemistry 289, 31014-31028] using a luciferase assay, the CellTiter-Glo Luminescent cell viability assay (Promega). Astrocytes grown on multiplate of 48 wells were rinsed and incubated 1 h at 37° C. in an atmosphere containing 5% CO2 and 95% air in DMEM (D5030; Sigma-Aldrich) containing 44 mm NaHCO3 and 2 mm glucose. At the end of the incubation, medium was removed, and 200 μl of Tricine buffer solution (40 mm Tricine, 3 mm EDTA, 85 mm NaCl, 3.6 mm KCl, 100 mm NaF, and 0.1% saponin (84510; Sigma-Aldrich), pH 7.4) was put in each well. Cells were lysed by saponin effect and by pipetting. Each sample was divided for ATP measure and for ATP+ADP measure. 90-μl aliquots were distributed in a black-walled 96-well type microplates (PerkinElmer Life Sciences). […] Finally, 100 μl of CellTiter-Glo reagent (G7571; Promega) was added, and luminescence was immediately detected with a luminometer (Safire 2; Tecan). Luminescence was measured in a kinetic way determined by 20 readings at intervals of 1 min. Luminescence read at the plateau were taken to calculate the ATP/ADP ratio. […]
# [2] = Metabolic stability in human plasma; format: in vitro ADME; conditions: 1 μM
# Experimental: The compounds were incubated with plasma, and the collected samples were analyzed by UPLC/HR-MS to measure stability of the compounds.
# Sample type: plasma; Species: CD1-mouse (male), human (mixed gender); Time points: 0, 20, 40, 60, 120 min;
# Spiking solvent: 50% DMSO ( 1/100 to incubation); Quenching solvent: 2-fold volume of 100% ACN; Control: propanthelin bromide (human, mouse)
# The study compounds were incubated with plasma as specified above. The collected samples were stored at −20 C until thawed at room temperature, centrifuged and analyzed using UPLC/PDA with high resolution mass spectrometry (QE-Orbitrap-MS on DDI mode) to monitor substrate depletion and metabolite formation. The analytical method was optimised by using the parent compounds for optimum chromatographic properties (peak shape and retention) and mass spectrometric ionisation. Disappearance was based on relative LC/MS peak areas (0 min=100%) and will be used to calculate half-lives.
smiles,measurement,setting,value
"O=c1cc(-c2ccc(CCCC[P+](c3ccccc3)(c3ccccc3)c3ccccc3)cc2)oc2c(O)c(O)ccc12 [SND118, 4-[4-(7,8-dihydroxy-4-oxo-chromen-2-yl)phenyl]butyltriphenylphosphonium bromide]",uptake of deoxyglucose (glucose uptake),[1],increased the uptake of deoxyglucose in the same range as glutamate control
same,production of ATP,"Astrocytes; 100 nM, 30 min",increased production of ATP
same,ATP/ADP ratio,Astrocytes; various doses,trended higher at most doses
same,T1/2 plasma Human,[2],13.2 h
